Data taken from PubChem BioAssay AID330 (DTP/NCI, 2004).
Several values for one entry are separate records, joined by “and”; a condition that tells them apart may be missing. Equal values may be shown once. Toxic doses and inconclusive results are not listed.

Test system: P388 leukemia ip, CD2F1 mice, survival T/C
Experiment: NCI In Vivo Anticancer Drug Screen. Data for tumor model P388 Leukemia (intraperitoneal) in CD2F1 (CDF1) mice
Details: endpoint: median survival time, higher = longer survival
Outline: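 Mice carrying the transplanted tumor received test compound or vehicle. Survival was recorded in each group, and the value is the treated-group measurement divided by that of the vehicle-treated control group.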

[1] = dose: 50.0 mg/kg/injection, schedule: Q01DX005 (ip), vehicle: saline with Tween-80
[2] = dose: 100.0 mg/kg/injection, schedule: Q01DX005 (ip), vehicle: saline with Tween-80
[3] = dose: 100.0 mg/kg/injection, schedule: Q01DX001 (ip), vehicle: saline with Tween-80
[4] = dose: 200.0 mg/kg/injection, schedule: Q01DX001 (ip), vehicle: saline with Tween-80
[5] = dose: 50.0 mg/kg/injection, schedule: Q01DX009 (ip), vehicle: saline with Tween-80
[6] = dose: 100.0 mg/kg/injection, schedule: Q01DX009 (ip), vehicle: saline with Tween-80
[7] = dose: 200.0 mg/kg/injection, schedule: Q01DX009 (ip), vehicle: saline with Tween-80
[8] = dose: 50.0 mg/kg/injection, schedule: Q01DX009 (ip), vehicle: Klucel (hydroxypropylcellulose) (HPC)
[9] = dose: 100.0 mg/kg/injection, schedule: Q01DX009 (ip), vehicle: Klucel (hydroxypropylcellulose) (HPC)
[10] = dose: 200.0 mg/kg/injection, schedule: Q01DX009 (ip), vehicle: Klucel (hydroxypropylcellulose) (HPC)
[11] = dose: 50.0 mg/kg/injection, schedule: Q01DX005 (ip), vehicle: Klucel (hydroxypropylcellulose) (HPC)
[12] = dose: 100.0 mg/kg/injection, schedule: Q01DX005 (ip), vehicle: Klucel (hydroxypropylcellulose) (HPC)
[13] = dose: 200.0 mg/kg/injection, schedule: Q01DX005 (ip), vehicle: Klucel (hydroxypropylcellulose) (HPC)
[14] = dose: 12.5 mg/kg/injection, schedule: Q01DX009 (ip), vehicle: saline

For `COC(=O)Nc1nc2ccccc2[nH]1`, the T/C (dose: 20.0 mg/kg/injection, schedule: Q04DX003 (ip), vehicle: other) was 101 % of control, the T/C (dose: 20.0 mg/kg/injection, schedule: Q04DX003 (oral), vehicle: other) was 100 % of control and the T/C (dose: 40.0 mg/kg/injection, schedule: Q04DX003 (ip), vehicle: other) was 100 % of control. The T/C (dose: 40.0 mg/kg/injection, schedule: Q04DX003 (oral), vehicle: other) was 101 % of control, the T/C (dose: 80.0 mg/kg/injection, schedule: Q04DX003 (ip), vehicle: other) was 101 % of control and the T/C (dose: 80.0 mg/kg/injection, schedule: Q04DX003 (oral), vehicle: other) was 101 % of control. The T/C (dose: 160.0 mg/kg/injection, schedule: Q04DX003 (ip), vehicle: other) was 107 % of control, the T/C (dose: 160.0 mg/kg/injection, schedule: Q04DX003 (oral), vehicle: other) was 105 % of control and the T/C (dose: 320.0 mg/kg/injection, schedule: Q04DX003 (ip), vehicle: other) was 102 % of control. The T/C (dose: 320.0 mg/kg/injection, schedule: Q04DX003 (oral), vehicle: other) was 100 % of control, the T/C (dose: 640.0 mg/kg/injection, schedule: Q04DX003 (ip), vehicle: other) was 111 % of control and the T/C (dose: 640.0 mg/kg/injection, schedule: Q04DX003 (oral), vehicle: other) was 102 % of control.

With `OC(c1ccccc1)(C1CCNCC1)C1CC1` (stereo not given) the T/C (dose: 12.5 mg/kg/injection, schedule: Q01DX001 (ip), vehicle: saline) was 105 % of control, the T/C (dose: 25.0 mg/kg/injection, schedule: Q01DX001 (ip), vehicle: saline) was 101 % of control and 97 % of control and the T/C (dose: 50.0 mg/kg/injection, schedule: Q01DX001 (ip), vehicle: saline) was 103 % of control and 106 % of control. For the same compound, the T/C (dose: 100.0 mg/kg/injection, schedule: Q01DX001 (ip), vehicle: Klucel (hydroxypropylcellulose) (HPC)) was 105 % of control and the T/C (dose: 100.0 mg/kg/injection, schedule: Q01DX001 (ip), vehicle: saline) was 102 % of control.

`CCOC(=O)N(CCF)N=O` was tested, and the T/C (dose: 3.12 mg/kg/injection, schedule: Q01DX001 (ip), vehicle: saline with Tween-80) was 108 % of control and 96 % of control, the T/C (dose: 6.25 mg/kg/injection, schedule: Q01DX001 (ip), vehicle: saline with Tween-80) was 108 % of control and 114 % of control and the T/C (dose: 12.5 mg/kg/injection, schedule: Q01DX001 (ip), vehicle: saline with Tween-80) was 124 % of control. For the same compound, the T/C (dose: 25.0 mg/kg/injection, schedule: Q01DX001 (ip), vehicle: saline with Tween-80) was 117 % of control.

With `CC(C)(C)c1cc2c3c(c1)C(C(F)(F)F)(C(F)(F)F)OS3(=O)(O)OC2(C(F)(F)F)C(F)(F)F` the T/C (dose: 25.0 mg/kg/injection, schedule: Q01DX005 (ip), vehicle: saline with Tween-80) was 100 % of control, the T/C [1] was 98 % of control and the T/C [2] was 103 % of control.

In the case of `CC1C=CC(C)N(C(N)=O)N1C(N)=O` (stereo not given), the T/C [3] is reported as 98 % of control, the T/C [4] is reported as 100 % of control and the T/C (dose: 400.0 mg/kg/injection, schedule: Q01DX001 (ip), vehicle: saline with Tween-80) is reported as 91 % of control.

With `O=C(CCl)Nc1ccc(Cl)cc1C(=O)c1ccccc1` the T/C [5] was 107 % of control, the T/C [6] was 98 % of control and the T/C [7] was 104 % of control.

In the case of `N=C1CCCS1`, the T/C (dose: 25.0 mg/kg/injection, schedule: Q01DX005 (ip), vehicle: saline) is reported as 115 % of control and the T/C (dose: 100.0 mg/kg/injection, schedule: Q01DX005 (ip), vehicle: saline) is reported as 150 % of control.

In the case of `O=S1(=O)CCN(CCCCc2ccccc2)CC1`, the T/C [8] is reported as 94 % of control, the T/C [9] is reported as 101 % of control and the T/C [10] is reported as 101 % of control.

For `CC(=O)Oc1ccc2c(c1)C(=O)c1nc(C)c(C)nc1C2=O`, the T/C [11] was 102 % of control, the T/C [12] was 102 % of control and the T/C [13] was 109 % of control.

In the case of `CCOc1ccc2nc(N=NC(C(C)=O)C(C)=O)sc2c1`, the T/C (dose: 50.0 mg/kg/injection, schedule: Q01DX009 (ip), vehicle: saline) is reported as 90 % of control, the T/C (dose: 100.0 mg/kg/injection, schedule: Q01DX009 (ip), vehicle: saline) is reported as 92 % of control and the T/C (dose: 200.0 mg/kg/injection, schedule: Q01DX009 (ip), vehicle: saline) is reported as 92 % of control.

`COc1cc(CC(OC)OC)no1` was tested, and the T/C (dose: 60.0 mg/kg/injection, schedule: Q01DX005 (ip), vehicle: saline with Tween-80) was 102 % of control, the T/C (dose: 120.0 mg/kg/injection, schedule: Q01DX005 (ip), vehicle: saline with Tween-80) was 103 % of control and the T/C (dose: 240.0 mg/kg/injection, schedule: Q01DX005 (ip), vehicle: saline with Tween-80) was 102 % of control.

`O=c1[nH]nnc2nc(N3CCOCC3)sc12` was tested, and the T/C [3] was 103 % of control and 95 % of control, the T/C [4] was 102 % of control and 104 % of control and the T/C (dose: 300.0 mg/kg/injection, schedule: Q01DX001 (ip), vehicle: saline with Tween-80) was 100 % of control.

`O=[N+]([O-])O.O=[N+]([O-])O.[NH-]C(c1ccccc1)C([NH-])c1ccccc1.[Pt+2]` (stereo not given) was tested, and the T/C (dose: 6.25 mg/kg/injection, schedule: Q04DX002 (ip), vehicle: saline) was 161 % of control, the T/C (dose: 12.5 mg/kg/injection, schedule: Q04DX002 (ip), vehicle: saline) was 154 % of control and the T/C (dose: 25.0 mg/kg/injection, schedule: Q04DX002 (ip), vehicle: saline) was 154 % of control.

For `CSC(Cl)=NC(=O)C(=O)N=C(Cl)SC`, the T/C [5] was 96 % of control and the T/C [6] was 89 % of control.

In the case of `O=C(CCc1ccc(O)cc1)ON1C(=O)CCC1=O`, the T/C (dose: 12.5 mg/kg/injection, schedule: Q01DX009 (ip), vehicle: Klucel (hydroxypropylcellulose) (HPC)) is reported as 108 % of control, the T/C (dose: 25.0 mg/kg/injection, schedule: Q01DX009 (ip), vehicle: Klucel (hydroxypropylcellulose) (HPC)) is reported as 109 % of control and the T/C [8] is reported as 104 % of control.

`C[n+]1cccc(SC2CCC3CC4CC3C2C4)c1` (stereo not given) was tested, and the T/C (dose: 12.5 mg/kg/injection, schedule: Q01DX009 (ip), vehicle: saline with Tween-80) was 113 % of control and the T/C (dose: 25.0 mg/kg/injection, schedule: Q01DX009 (ip), vehicle: saline with Tween-80) was 102 % of control.

In the case of `CNCCOC(=O)/C=C1\CC[C@H]2[C@@H]([C@@H](O)C(=O)[C@@H]3[C@]2(C)CC[C@H](O)[C@]3(C)C(=O)OC)[C@H]1C`, the T/C (dose: 3.0 mg/kg/injection, schedule: Q01DX009 (ip), vehicle: saline) is reported as 100 % of control, the T/C (dose: 6.0 mg/kg/injection, schedule: Q01DX009 (ip), vehicle: saline) is reported as 97 % of control and the T/C (dose: 12.0 mg/kg/injection, schedule: Q01DX009 (ip), vehicle: saline) is reported as 109 % of control. For the same compound, the T/C [14] was 114 % of control.

`CCC1=[N+](C)c2ccccc2C1(C)C` was tested, and the T/C (dose: 25.0 mg/kg/injection, schedule: Q04DX003 (ip), vehicle: saline) was 100 % of control, the T/C (dose: 50.0 mg/kg/injection, schedule: Q04DX003 (ip), vehicle: saline) was 99 % of control and the T/C (dose: 100.0 mg/kg/injection, schedule: Q04DX003 (ip), vehicle: saline) was 107 % of control.

With `Cc1cccc(Nc2nnc(Nc3cccc(C)n3)c3ccccc23)n1` the T/C [1] was 95 % of control, the T/C [2] was 91 % of control and the T/C (dose: 200.0 mg/kg/injection, schedule: Q01DX005 (ip), vehicle: saline with Tween-80) was 92 % of control.

`CCCc1c(C)nc2scc(-c3ccc(Cl)cc3)n2c1=O` was tested, and the T/C [5] was 96 % of control, the T/C [6] was 98 % of control and the T/C [7] was 96 % of control.

In the case of `CCOC(=O)c1ccc(NC(=O)Nc2cc(Cl)ncn2)cc1`, the T/C [8] is reported as 100 % of control, the T/C [9] is reported as 99 % of control and the T/C [10] is reported as 91 % of control.

With `CCCCC(C)(CN(C)C)C(=O)/C=C/c1ccc(Cl)c(Cl)c1` (stereo not given) the T/C (dose: 3.13 mg/kg/injection, schedule: Q01DX009 (ip), vehicle: saline) was 111 % of control and 97 % of control, the T/C (dose: 6.25 mg/kg/injection, schedule: Q01DX009 (ip), vehicle: saline) was 102 % of control and 108 % of control and the T/C [14] was 109 % of control. The T/C (dose: 25.0 mg/kg/injection, schedule: Q01DX009 (ip), vehicle: saline) was 106 % of control and 109 % of control.

For `O=C(Nc1ccccc1C1=NCCN1)c1ccc(C(=O)Nc2ccccc2C2=NCCN2)cc1`, the T/C [11] was 96 % of control, the T/C [12] was 87 % of control and the T/C [13] was 91 % of control.
